The values below come from US9555013B2, “Modulation of fibroblast activity” (The University of Leicester, priority 2008, dated 2017).

Assay [1] concerns human neutrophils. The assay can be described thus: Secretion of VEGF from neutrophils (ELISA). In kind it is cell-based. Conditions: FIG. 15; after 48 hours; vs control. Here is the method: (§1) Human dermal fibroblasts (FIGS. 9 and 15) or human neutrophils (VEGF only) (FIG. 15) were seeded into 6-well plates and grown to 60% confluence in FM. […] The supernatants were prepared and assayed using ELISA kits for TGF-β1, TGF-β2, 15 TGF-β3 and VEGF (R & D systems) following the Manufacturer's instructions.

For assay [2], the system named is Human dermal fibroblasts. The assay is described as follows: Secretion of VEGF from dermal fibroblasts (ELISA). Particulars: FIG. 15; after 48 hours; vs control. In kind it is cell-based. As to the method:
as §1
In general terms: ELISA stands for enzyme-linked immunosorbent assay.

The test system of assay [3] is full-thickness 6 mm excisional wounds. The assay can be described thus: Murine excisional wound model with immunohistochemistry. Conditions: for murine wound closure (wound area): FIG. 3, 0.1% in 100 μl hydroactive gel, topical, daily.
Protocol: FVB/NJ (β2-AR+/+) mice, were purchased from The Jackson laboratory (Bar Harbor, Me.). All animals used in the study were females between 8-12 weeks of age. β2-AR+/+ mice were anaesthetized by intraperitoneal injection of ketamine (100 mg/kg)/xylazine (10 mg/kg) (Pfizer). Back skin was shaved and two circular full-thickness 6 mm excisional wounds were created 2 cm apart, in the centre of the back, using a sterile 6 mm biopsy punch (SMS Inc.). […] Each mouse was housed separately after wounding until wound harvest. Wounds were left uncovered and digitally photographed, daily, to determine wound contraction over time. Wounds were harvested at days 3 and 5 post-wounding by carefully applying an 8 mm punch (SMS Inc.) around the original wound site and lightly pressing to form an outline on the skin. Scissors were then used to remove the wound site without damaging the delicate wound bed.
For histological analysis the wounds were fixed in an IHC zinc fixative (BD Biosciences). The zinc-fixed biopsies were bisected to ensure that sections were taken from the centre of the wound, dehydrated through an ethanol xylene series, and embedded in paraffin.
Specimens that were damaged in the histological process or otherwise non-interpretable were excluded from the study. Wound closure was quantified by measuring the wound area of each wound from the digital pictures taken every day with Image J, National Institutes of Health website. Images of the smooth muscle-alpha actin (SMA)-stained wounds were captured at 2× magnification on a Nikon SMZ-U upright microscope with Nikon ACT-1 software (as shown in FIG. 4). Image J was used to determine the area of SMA staining in each wound to calculate the mean area of SMA staining in each group (as shown in FIG. 5). Images of the collagen III stained wounds were captured at 20× magnification on a Nikon Eclipse 2000U inverted microscope with NIS-Elements software (as shown in FIG. 6). The intensity of collagen III staining was graded on a scale of 0-6, no staining receiving a score of 0 and the darkest staining receiving a score of 6 (as shown in FIG. 7). The staining of each wound was scored in a double-blind manner and the mean staining intensity was calculated for each group.
The test system of assay [4] is Human dermal fibroblasts. The assay is described as follows: Secretion of TGF-β1, TGF-β2, TGF-β3 from dermal fibroblasts (ELISA). Particulars: FIG. 9. Type of assay: cell-based. As to the method:
as §1

The subject of assay [5] is Human dermal fibroblasts. The assay can be described thus: Tethered (anchored) collagen gel model of wounded dermis. In kind it is cell-based. Particulars: 10 μM, 4 days incubation; for collagen I staining in fibroblasts released from collagen gels: FIG. 8B; for smooth muscle alpha actin staining in fibroblasts released from collagen gels: FIG. 8D.
Protocol: 50% collagen I gels were seeded with 30,000 cells per ml in the absence or presence of a β2-AR agonist or a β2-AR antagonist.
The subject of assay [6] is dermal fibroblasts. The assay is described as follows: Floating collagen gel contraction assay. In kind it is cell-based. Conditions: FIG. 2; 10 nM. As to the method:
The individual solutions were prepared and cooled to 4° C. before mixing to prevent premature gelation. The final solution contained 40% (v/v) Vitrogen, 20% DMEM, 30% DMEM with Hepes buffer, and 10% calf serum. Cells were incubated with the appropriate drug concentration for 30 minutes at 37° C. and added to the collagen gel mix just before gel casting at the concentration of 30,000 per ml. The lattices were cast, with 1.7 ml of the final solution per dish, in 35 mm bacteriologic dishes (Falcon Labware, BD Biosciences), to which fibroblasts poorly adhere. The mixture gelled within 30 minutes upon incubation at 37° C. in a humidified atmosphere of 95 percent air and 5 percent CO2.
To determine the effect of β2-AR antagonists on floating gel contraction (as shown in FIG. 2), lattices were detached from the sides of the dishes after 2 hours by rimming the edges of the dishes using a sterile […] and gently shaking the dishes until the gels slid freely. Lattice retraction was measured every day by placing the dishes over a flat ruler on a black background. To determine the effect of β2-AR agonists and antagonists on proliferation of cells in a model of the wound dermis, the gels remained anchored to the side of the dish (as shown in FIG. 8).

Entries after “also recorded” stand apart in the source; their conditions may differ.

On to `OCc1cc(C(O)CNCCCCCCOCCCCc2ccccc2)ccc1O` (stereo not drawn) [salmeterol], for which the “amount of VEGF secreted from human neutrophils” value (“amount … from human neutrophils” for short) in assay [1] was “decrease”. The “amount of VEGF secreted from human dermal fibroblasts” value in assay [2] is given as “decrease”.
Turning to `Cc1ccc(OCC(O)C(C)NC(C)C)c2c1CCC2` (stereo not drawn) [ICI 118,551], the “murine wound closure (wound area)” value in assay [3] was “enhances; also recorded: acceleration”. Moreover, the “smooth muscle α-actin staining / expressing cells in the wound dermis” value in assay [3] (FIGS. 4 and 5, 5 days post wounding, 0.1% topical daily, vs controls) was “increase”. For the same molecule, the “collagen III deposition (staining) in the wound dermis” value in assay [3] (FIGS. 6 and 7, 5 days post wounding, 0.1% topical daily, vs controls) is “increase”. In addition, in assay [4] (10 μM, 24 hours, vs control), the “increase in TGF-β1 levels” value came to 3 fold and the “increase in amount of TGF-β3 secreted” value is given as “no effect”. Also, the “increase in TGFβ2 levels” value in assay [4] (10 μM, after 6 hours, vs control) was 1.6 fold. For the same molecule, in assay [4] (time given as 24 hours, not stated), the “increase in TGF-β2 levels” value is recorded as 1.6 fold. In assay [5] (FIG. 8A), the “rigidity of human dermal fibroblast-seeded collagen gels” value was “increases”. For the same molecule, in assay [5], the “collagen I staining in fibroblasts released from collagen gels” value is “increases” and the “smooth muscle alpha actin staining in fibroblasts released from collagen gels” value is reported as “increases”. The “dermal fibroblast-mediated floating collagen gel contraction” value in assay [6] is recorded as “enhance”.
As to `COc1ccc(CC(C)NCC(O)c2ccc(O)c(NC=O)c2)cc1` (stereo not drawn) [formotorol], in assay [2], the “amount of VEGF secreted from human dermal fibroblasts” value is “decrease”.
Consider `CC(C)(C)NCC(O)c1ccc(O)c(CO)c1` (stereo not drawn) [salbutamol], for which the “amount … from human neutrophils” value in assay [1] was “decrease”. Further, the “murine wound closure (wound area)” value in assay [3] is reported as “delayed”. In assay [4] (10 μM, 24 hours, vs control), the “decrease in amount of TGF-β1 secreted” value is reported as 4 fold and the “increase in amount of TGF-β3 secreted” value is 5 fold. Also, the “decrease in amount of secreted TGFβ1” value in assay [4] (10 μM, after 24 hours, vs control) was 74%. Moreover, in assay [5], the “collagen I staining in fibroblasts released from collagen gels” value is “decreases” and the “smooth muscle alpha actin staining in fibroblasts released from collagen gels” value is on record as “decreases”. In addition, the “human dermal fibroblast proliferation in collagen gels” value in assay [5] (FIG. 8C) is “decreases”. The “amount of VEGF secreted from human dermal fibroblasts” value in assay [2] is “decrease”.
Consider `CC(C)NCC(O)c1ccc(O)c(O)c1` (stereo not drawn) [isoproterenol], for which, in assay [1], the “amount … from human neutrophils” value was “decrease”. Moreover, the “amount of VEGF secreted from human dermal fibroblasts” value in assay [2] is given as “decrease”.
Turning to `CC(C)(C)NC[C@H](O)COc1nsnc1N1CCOCC1` [timolol], the “amount … from human neutrophils” value in assay [1] is listed as “increase”. In assay [2], the “amount of VEGF secreted from human dermal fibroblasts” value is given as “increase”.
